According to PubChem BioAssay AID2060613 (Molecular Pharmacology Branch, DTP, NCI, 2025):
pIC50: −log10 of the molar value.

Tested on: 233499-124-R-J3-PDC complex spheroid viability
Test: Anticancer human tumor 233499-124-R-J3-PDC patient-derived colon adenocarcinoma cell line growth inhibition [CLK]
Conditions: for pIC50: curve of first compound; for viability, T/C: stronger effect = lower value
Procedure, shortened: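 Multi-cell-type spheroids combined patient-derived tumor cells with HUVEC endothelial cells and human mesenchymal stem cells. Paired agents were dosed in half-log steps down from about clinical Cmax, or from 10 microM where Cmax was unknown.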

[1] = second compound 0.0316 µM, first compound 0.0316 µM
[2] = second compound 0.0316 µM, first compound 0.1 µM
[3] = second compound 0.0316 µM, first compound 0.316 µM
[4] = second compound 0.0316 µM, first compound 1 µM
[5] = second compound 0.0316 µM, first compound 3.16 µM
[6] = second compound 0.0316 µM, first compound 10 µM
[7] = second compound 0.1 µM, first compound 0.0316 µM
[8] = second compound 0.1 µM, first compound 0.1 µM
[9] = second compound 0.1 µM, first compound 0.316 µM
[10] = second compound 0.1 µM, first compound 1 µM
[11] = second compound 0.1 µM, first compound 3.16 µM
[12] = second compound 0.1 µM, first compound 10 µM
[13] = second compound 0.316 µM, first compound 0.0316 µM
[14] = second compound 0.316 µM, first compound 0.1 µM
[15] = second compound 0.316 µM, first compound 0.316 µM
[16] = second compound 0.316 µM, first compound 1 µM
[17] = second compound 0.316 µM, first compound 3.16 µM
[18] = second compound 0.316 µM, first compound 10 µM
[19] = second compound 1 µM, first compound 0.0316 µM
[20] = second compound 1 µM, first compound 0.1 µM
[21] = second compound 1 µM, first compound 0.316 µM
[22] = second compound 1 µM, first compound 1 µM
[23] = second compound 1 µM, first compound 3.16 µM
[24] = second compound 1 µM, first compound 10 µM
[25] = second compound 3.16 µM, first compound 0.0316 µM
[26] = second compound 3.16 µM, first compound 0.1 µM
[27] = second compound 3.16 µM, first compound 0.316 µM
[28] = second compound 3.16 µM, first compound 1 µM
[29] = second compound 3.16 µM, first compound 3.16 µM
[30] = second compound 3.16 µM, first compound 10 µM
[31] = second compound 10 µM, first compound 0.0316 µM
[32] = second compound 10 µM, first compound 0.1 µM
[33] = second compound 10 µM, first compound 0.316 µM
[34] = second compound 10 µM, first compound 1 µM
[35] = second compound 10 µM, first compound 3.16 µM
[36] = second compound 10 µM, first compound 10 µM
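Further: spheroids exposed to the drug combinations for seven days.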
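Wherever viability, T/C is given: percent viability relative to DMSO vehicle control wells taken as 100%.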

## C=CC(=O)Nc1cc(Nc2nccc(-c3cn(C)c4ccccc34)n2)c(OC)cc1N(C)CCN(C)C + CNC(=O)c1ccc(Nc2nc(OC3CCCC3)c3c(-c4ccc5nc(C)oc5c4)c[nH]c3n2)c(OC)c1
Second compound 0.0316 µM
  pIC50: < 6.52
Second compound 0.1 µM
  pIC50: < 6.52
Second compound 0.316 µM
  pIC50: < 6.52
Second compound 1 µM
  pIC50: < 6.52
Second compound 3.16 µM
  pIC50: < 6.52
Second compound 10 µM
  pIC50: < 6.52
Second compound 0.0316 µM, first compound 0.000949 µM
  viability, T/C: 70.1%
Second compound 0.0316 µM, first compound 0.003 µM
  viability, T/C: 97%
Second compound 0.0316 µM, first compound 0.00949 µM
  viability, T/C: 76.7%
Second compound 0.0316 µM, first compound 0.03 µM
  viability, T/C: 91%
Second compound 0.0316 µM, first compound 0.0949 µM
  viability, T/C: 94.9%
Second compound 0.0316 µM, first compound 0.3 µM
  viability, T/C: 71.8%
Second compound 0.1 µM, first compound 0.000949 µM
  viability, T/C: 69.8%
Second compound 0.1 µM, first compound 0.003 µM
  viability, T/C: 80.8%
Second compound 0.1 µM, first compound 0.00949 µM
  viability, T/C: 77.9%
Second compound 0.1 µM, first compound 0.03 µM
  viability, T/C: 74.8%
Second compound 0.1 µM, first compound 0.0949 µM
  viability, T/C: 81.5%
Second compound 0.1 µM, first compound 0.3 µM
  viability, T/C: 77.1%
Second compound 0.316 µM, first compound 0.000949 µM
  viability, T/C: 70%
Second compound 0.316 µM, first compound 0.003 µM
  viability, T/C: 86%
Second compound 0.316 µM, first compound 0.00949 µM
  viability, T/C: 69.2%
Second compound 0.316 µM, first compound 0.03 µM
  viability, T/C: 68.4%
Second compound 0.316 µM, first compound 0.0949 µM
  viability, T/C: 76.6%
Second compound 0.316 µM, first compound 0.3 µM
  viability, T/C: 78.3%
Second compound 1 µM, first compound 0.000949 µM
  viability, T/C: 78.7%
Second compound 1 µM, first compound 0.003 µM
  viability, T/C: 76.2%
Second compound 1 µM, first compound 0.00949 µM
  viability, T/C: 75.3%
Second compound 1 µM, first compound 0.03 µM
  viability, T/C: 82.5%
Second compound 1 µM, first compound 0.0949 µM
  viability, T/C: 69.9%
Second compound 1 µM, first compound 0.3 µM
  viability, T/C: 73.3%
Second compound 3.16 µM, first compound 0.000949 µM
  viability, T/C: 55.5%
Second compound 3.16 µM, first compound 0.003 µM
  viability, T/C: 71.3%
Second compound 3.16 µM, first compound 0.00949 µM
  viability, T/C: 81.4%
Second compound 3.16 µM, first compound 0.03 µM
  viability, T/C: 65.8%
Second compound 3.16 µM, first compound 0.0949 µM
  viability, T/C: 79.7%
Second compound 3.16 µM, first compound 0.3 µM
  viability, T/C: 67.7%
Second compound 10 µM, first compound 0.000949 µM
  viability, T/C: 73.5%
Second compound 10 µM, first compound 0.003 µM
  viability, T/C: 62.2%
Second compound 10 µM, first compound 0.00949 µM
  viability, T/C: 76.9%
Second compound 10 µM, first compound 0.03 µM
  viability, T/C: 74.8%
Second compound 10 µM, first compound 0.0949 µM
  viability, T/C: 69.6%
Second compound 10 µM, first compound 0.3 µM
  viability, T/C: 61.7%

## CC1COCCN1c1cc(C2(S(C)(=N)=O)CC2)nc(-c2ccnc3[nH]ccc23)n1 (stereo not drawn) + CN1CCN(c2cc(C(=O)Nc3cc4cc(-c5cnn(C)c5)ccc4cn3)ccn2)CC1
Second compound 0.0316 µM
  pIC50: < 5.00
Second compound 0.1 µM
  pIC50: < 5.00
Second compound 0.316 µM
  pIC50: 5.16
Second compound 1 µM
  pIC50: > 7.50
Second compound 3.16 µM
  pIC50: > 7.50
Second compound 10 µM
  pIC50: > 7.50
[1]
  viability, T/C: 99.9%
[2]
  viability, T/C: 109%
[3]
  viability, T/C: 98.3%
[4]
  viability, T/C: 106%
[5]
  viability, T/C: 90.3%
[6]
  viability, T/C: 66.6%
[7]
  viability, T/C: 96.6%
[8]
  viability, T/C: 109%
[9]
  viability, T/C: 103%
[10]
  viability, T/C: 90.8%
[11]
  viability, T/C: 75.7%
[12]
  viability, T/C: 53.6%
[13]
  viability, T/C: 94.2%
[14]
  viability, T/C: 93.3%
[15]
  viability, T/C: 98.9%
[16]
  viability, T/C: 86.7%
[17]
  viability, T/C: 71.2%
[18]
  viability, T/C: 40.5%
[19]
  viability, T/C: 3.94%
[20]
  viability, T/C: 1.1%
[21]
  viability, T/C: 0.55%
[22]
  viability, T/C: 1.34%
[23]
  viability, T/C: 1.62%
[24]
  viability, T/C: 0.81%
[25]
  viability, T/C: 0.77%
[26]
  viability, T/C: 0.89%
[27]
  viability, T/C: 1.57%
[28]
  viability, T/C: 0.66%
[29]
  viability, T/C: 0.84%
[30]
  viability, T/C: 0.92%
[31]
  viability, T/C: 0.55%
[32]
  viability, T/C: 0.49%
[33]
  viability, T/C: 0.53%
[34]
  viability, T/C: 0.5%
[35]
  viability, T/C: 0.6%
[36]
  viability, T/C: 0.44%

## COC1C=CCC(C)C(C)S(=O)(=O)NC(=O)c2ccc3c(c2)N(CC2CCC21)CC1(CCCc2cc(Cl)ccc21)CO3 (stereo not drawn) + CN1CCN(c2cc(C(=O)Nc3cc4cc(-c5cnn(C)c5)ccc4cn3)ccn2)CC1
Second compound 0.0316 µM
  pIC50: 5.41
Second compound 0.1 µM
  pIC50: 5.44
Second compound 0.316 µM
  pIC50: 6.57
Second compound 1 µM
  pIC50: > 7.50
Second compound 3.16 µM
  pIC50: > 7.50
Second compound 10 µM
  pIC50: > 7.50
[1]
  viability, T/C: 93.9%
[2]
  viability, T/C: 98%
[3]
  viability, T/C: 94.6%
[4]
  viability, T/C: 80.2%
[5]
  viability, T/C: 60.4%
[6]
  viability, T/C: 7.46%
[7]
  viability, T/C: 98.8%
[8]
  viability, T/C: 98.6%
[9]
  viability, T/C: 90.5%
[10]
  viability, T/C: 79.7%
[11]
  viability, T/C: 57.3%
[12]
  viability, T/C: 7.28%
[13]
  viability, T/C: 91.5%
[14]
  viability, T/C: 80%
[15]
  viability, T/C: 46.5%
[16]
  viability, T/C: 13.9%
[17]
  viability, T/C: 30.5%
[18]
  viability, T/C: 3.11%
[19]
  viability, T/C: 0.62%
[20]
  viability, T/C: 1.27%
[21]
  viability, T/C: 0.44%
[22]
  viability, T/C: 0.32%
[23]
  viability, T/C: 0.78%
[24]
  viability, T/C: 0.58%
[25]
  viability, T/C: 0.45%
[26]
  viability, T/C: 0.45%
[27]
  viability, T/C: 0.5%
[28]
  viability, T/C: 0.44%
[29]
  viability, T/C: 0.43%
[30]
  viability, T/C: 0.31%
[31]
  viability, T/C: 0.31%
[32]
  viability, T/C: 0.28%
[33]
  viability, T/C: 0.31%
[34]
  viability, T/C: 0.3%
[35]
  viability, T/C: 0.29%
[36]
  viability, T/C: 0.22%

## CC(CO)NC(=O)c1cc(-c2ccc(Cl)cc2)nn(-c2cnn(C)c2)c1=O (stereo not drawn) + CN1CCN(c2cc(C(=O)Nc3cc4cc(-c5cnn(C)c5)ccc4cn3)ccn2)CC1
Second compound 0.0316 µM
  pIC50: < 5.00
Second compound 0.1 µM
  pIC50: < 5.00
Second compound 0.316 µM
  pIC50: < 5.00
Second compound 1 µM
  pIC50: > 7.50
Second compound 3.16 µM
  pIC50: > 7.50
Second compound 10 µM
  pIC50: > 7.50
[1]
  viability, T/C: 97.5%
[2]
  viability, T/C: 100%
[3]
  viability, T/C: 98.1%
[4]
  viability, T/C: 92%
[5]
  viability, T/C: 98.5%
[6]
  viability, T/C: 66.4%
[7]
  viability, T/C: 86.3%
[8]
  viability, T/C: 112%
[9]
  viability, T/C: 103%
[10]
  viability, T/C: 94.2%
[11]
  viability, T/C: 94.3%
[12]
  viability, T/C: 80%
[13]
  viability, T/C: 93.3%
[14]
  viability, T/C: 94.4%
[15]
  viability, T/C: 92.2%
[16]
  viability, T/C: 94.8%
[17]
  viability, T/C: 103%
[18]
  viability, T/C: 68.9%
[19]
  viability, T/C: 1.24%
[20]
  viability, T/C: 1.01%
[21]
  viability, T/C: 6.77%
[22]
  viability, T/C: 3.75%
[23]
  viability, T/C: 6.32%
[24]
  viability, T/C: 0.66%
[25]
  viability, T/C: 0.63%
[26]
  viability, T/C: 0.7%
[27]
  viability, T/C: 0.8%
[28]
  viability, T/C: 0.74%
[29]
  viability, T/C: 0.73%
[30]
  viability, T/C: 0.73%
[31]
  viability, T/C: 0.53%
[32]
  viability, T/C: 0.48%
[33]
  viability, T/C: 1.5%
[34]
  viability, T/C: 0.55%
[35]
  viability, T/C: 0.5%
[36]
  viability, T/C: 0.6%
